Experimental data as given in ChEMBL document CHEMBL3430912, “GSK Tres Cantos Anti-Kinetoplastid Screening (TCAKS) Data”.

Columns and labels:
[1] = GSK_TCAKS: pIC50 HepG2 human cell line viability assay using luminiscence. […] Seeding density was checked to ensure that new mono-layers were not more than 50% confluent at the time of harvesting. Cell suspension was added to 500 mL of the same medium at a final density of 1.2 * 10^5 cells/mL. This cell suspension was dispensed (25 uL, 3000 cells per well) into 384-well clear-bottom plates using a Multidrop Combi dispenser. Prior to addition of the cell suspension, the screening compounds (250 nL) were pre-dispensed into the plates with an Echo liquid handler. Plates were incubated for 48 h at 37C, 5% CO2. After incubation, plates equilibrated at room temperature for 30 min before proceeding to develop the luminescent signal. The signal developer, CellTiter-Glo Reagent, was allowed to equilibrate at room temperature for 30 min and added to the plates (25uL per well) using a Multidrop Combi dispenser. Plates were left for 10 min at room temperature for stabilization and then read using a ViewLux.; assay type: toxicity, cell-based
[2] = test system: Trypanosoma brucei brucei; experiment: GSK_TCAKS: pIC50 Trypanosoma brucei viability assay using luminiscence. Assay plates (1536-well) were prepared. T. brucei cultures were harvested and counted in a CASY cell counter. A parasite suspension was prepared at a final concentration of 5 * 10^4 cells/mL in complete HMI9 medium and 6uL was dispensed to all wells containing compounds using a Multidrop Combi dispenser. 6uL of HMI9 media with 0.4% DMSO were dispensed to control columns. Plates were incubated for 24 h at 37C, 5% CO2 then tempered for 10 min at room temperature. ATP content was quantified by adding 4 uL of CellTiter-Glo Reagent (Promega) according to the manufacturer's instructions. Luminescence was measured using a ViewLux.; assay type: functional, organism-based; conditions: Lister 427, CASY
[3] = biological target: Sterol 14-alpha demethylase (Trypanosoma cruzi (strain CL Brener), UniProt Q7Z1V1); experiment: GSK_TCAKS: pIC50 CYP51 from Trypanosoma cruzi.; assay type: functional
Sequence of Sterol 14-alpha demethylase (Q7Z1V1 whole entry): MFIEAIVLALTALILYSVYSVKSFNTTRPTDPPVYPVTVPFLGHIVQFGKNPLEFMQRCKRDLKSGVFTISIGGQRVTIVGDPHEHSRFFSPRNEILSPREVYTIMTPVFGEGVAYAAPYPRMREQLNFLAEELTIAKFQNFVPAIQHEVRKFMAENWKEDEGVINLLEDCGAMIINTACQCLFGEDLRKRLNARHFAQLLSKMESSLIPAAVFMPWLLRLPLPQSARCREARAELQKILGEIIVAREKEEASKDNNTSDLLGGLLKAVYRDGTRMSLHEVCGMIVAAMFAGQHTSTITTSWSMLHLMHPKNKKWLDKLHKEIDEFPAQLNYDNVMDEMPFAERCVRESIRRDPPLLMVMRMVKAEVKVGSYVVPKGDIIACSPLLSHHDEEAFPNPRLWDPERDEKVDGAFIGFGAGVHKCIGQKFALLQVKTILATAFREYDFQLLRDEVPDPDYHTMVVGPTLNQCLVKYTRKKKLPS

[4] = test system: Trypanosoma brucei brucei; experiment: GSK_TCAKS: pIC50 Trypanosoma brucei viability assay using fluorescence intensity. Assay plates (1536-well) were prepared by dispensing 25nL of compound solution per well using an Echo acoustic dispenser (Labcyte).; assay type: functional, organism-based; conditions: Lister 427, 2 h
[5] = test system: Trypanosoma cruzi; experiment: GSK_TCAKS: pIC50 Trypanosoma cruzi Imaging: Amastigotes/Cell. […] Cells were then washed once with PBS before infection. T. cruzi trypomastigotes, collected at days 5 to 8 after infection from LLC-MK2 parasite infected cultures, were allowed to swim out for 4h at 37C from a centrifuged pellet (2,500 rpm/10 min/room temperature). Trypomastigotes were then collected and counted in a CASY Cell Counter. Trypomastigotes, in supplemented DMEM, were added to H9c2 cultures in a multiplicity of infection of 1 and incubated for 18 h. Cells were washed once with PBS before incubation of the infected H9c2 monolayer with trypsin (Life-Technologies) to detach cells from the flask. Cells were counted in a CASY Cell Counter using a 150 um capillary and their density set at 5 * 10^4 cells per mL in supplemented assay DMEM. Infected H9c2 were dispensed into 384-well poly-lysine coated assay plates at 50uL per well using a Multidrop Combi dispenser. After seeding them, the plates were incubated at 37C, 5% CO2 for 72h. Cultures were then fixed and stained by addition of 50 uL of a solution containing 8% formaldehyde and 4 uM DRAQ5 DNA dye (BioStatus, UK) per well. […] Five images were collected per well for reliable statistical analysis. Automated image analysis was performed with a script developed on Acapella High Content Imaging and Analysis Software (PerkinElmer). Output: number of amastigotes per cell as infection level measurement.; assay type: functional, organism-based, Rattus norvegicus; conditions: H9c2, 4 h
[6] = test system: Leishmania donovani; experiment: GSK_TCAKS: pIC50 Leishmania donovani viability assay using fluorescence intensity. Assay plates (1536-well) were prepared by adding 30nL per well of compound. For single shot assay, the final compound concentration was 5uM. […] Briefly, eGFP LdBOB axenic amastigotes were harvested, fixed and counted in a CASY cell counter (Roche-Applied Science). A final concentration of 1.5 * 10^5 cells per well were prepared in amastigote media containing 500 U/mL penicillin/streptomycin (Invitrogen) and 6uL was dispensed to each experimental well using a Multidrop Combi dispenser (Thermo Scientific). 6uL of assay media was dispensed to control columns used as reference for 100% compound response. Following incubation for 72 h at 37C, 5% CO2, 2 uL of resazurin was added to each well at a final concentration of 0.5 mM in phosphate buffered saline (PBS) with IGEPAL (Sigma-Aldrich), 0.05% (v/v).; assay type: functional, organism-based
[7] = test system: Leishmania donovani; experiment: GSK_TCAKS: pIC50 Leishmania donovani Imaging: Amastigotes/Macrophages. Assay plates (384-well) were prepared by adding 250nL of compound to each well. For single shot assay, the final compound concentration was 5 uM. […] Automated image analysis was performed with a script developed on Acapella High Content Imaging and Analysis Software (PerkinElmer). Output: Average number of amastigotes per macrophage cell were reported for each well.; assay type: functional, organism-based, Homo sapiens; conditions: THP-1
[8] = test system: Trypanosoma cruzi; experiment: (§1) GSK_TCAKS: pIC50 Trypanosoma cruzi Imaging: Infected Cells. […] Cells were then washed once with PBS before infection. T. cruzi trypomastigotes, collected at days 5 to 8 after infection from LLC-MK2 parasite infected cultures, were allowed to swim out for 4h at 37C from a centrifuged pellet (2,500 rpm/10 min/room temperature). Trypomastigotes were then collected and counted in a CASY Cell Counter. Trypomastigotes, in supplemented DMEM, were added to H9c2 cultures in a multiplicity of infection of 1 and incubated for 18 h. Cells were washed once with PBS before incubation of the infected H9c2 monolayer with trypsin (Life-Technologies) to detach cells from the flask. Cells were counted in a CASY Cell Counter using a 150 um capillary and their density set at 5 * 10^4 cells per mL in supplemented assay DMEM. Infected H9c2 were dispensed into 384-well poly-lysine coated assay plates at 50uL per well using a Multidrop Combi dispenser. After seeding them, the plates were incubated at 37C, 5% CO2 for 72h. Cultures were then fixed and stained by addition of 50 uL of a solution containing 8% formaldehyde and 4 uM DRAQ5 DNA dye (BioStatus, UK) per well. […] Five images were collected per well for reliable statistical analysis. Automated image analysis was performed with a script developed on Acapella High Content Imaging and Analysis Software (PerkinElmer). Output: percentage of infected cells per well as a second infection marker.; assay type: functional, organism-based, Rattus norvegicus; conditions: H9c2, 4 h
[9] = test system: NIH3T3; experiment: GSK_TCAKS: pIC50 NIH 3T3 cell line viability assay using luminiscence. Tissue culture surface treated assay plates (1536-well) were used. […] The 100% cells survival control was determined exposing the host-cells to a 0.5% DMSO concentration, whereas the 100% toxicity control was achieved by seeding the cells in presence of Amphotericin B at 50uM. Plates were incubated for four days at 37C, 5% CO2. The assay readout was developed by addition of 5uL of CellTiter-Glo Reagent following the manufacturer's instructions. Luminiscence was measured using a ViewLux.; assay type: functional, cell-based; conditions: Mus musculus, NIH3T3, 96 h
[10] = test system: Trypanosoma cruzi; experiment: GSK_TCAKS: pIC50 Trypanosoma cruzi viability assay using beta-GAL activity. This assay was run at single shot at 5uM compound concentration per well. The biological reagents consisted of NIH-3T3 host cells and trypomastigotes parasitic cells; both cell types were set to a 3.3 * 10^5 cells/mL dilution in assay DMEM by means of a CASY cell counter device using a 60um capillary. 6 uL of the mixture were dispensed per well (about 1 * 10^3 host-cells and 1 * 10^3 parasites) with a Multidrop Combi dispenser. […] In all wells, the percentage of DMSO never exceeded 0.5%. Plates incubated for four days at 37C, 5% CO2. The substrate used for the assay fluorescence intensity (FLINT) readout was resorufin-beta-D-galactopiranoside (Sigma-Aldrich) at 5uM per well. It was diluted in PBS supplemented with the soft detergent Igepal (Fluka).; assay type: functional, organism-based, Mus musculus; conditions: Tulahuen, NIH3T3
[11] = test system: Trypanosoma cruzi; experiment: as §1, with “H2C9” for “Trypanosoma cruzi”, “H9c2 Host Cardiomyocytes.” for “Infected Cells.”, “Number” for “percentage”, “H9c2 Host Cardiomyocytes nuclei to determine drug-related cytotoxicity.” for “infected cells per well as a second infection marker.”; assay type: functional, organism-based, Rattus norvegicus; conditions: H9c2, 4 h
[12] = test system: Leishmania donovani; experiment: GSK_TCAKS: pIC50 Leishmania donovani Imaging: THP-1 Host Macrophages. Assay plates (384-well) were prepared by adding 250nL of compound to each well. For single shot assay, the final compound concentration was 5 uM. […] Automated image analysis was performed with a script developed on Acapella High Content Imaging and Analysis Software (PerkinElmer). Output: THP-1 cell count were reported for each well.; assay type: functional, organism-based, Homo sapiens
[13] = test system: Leishmania donovani; experiment: GSK_TCAKS: pIC50 Leishmania donovani Imaging: Infected Macrophages. Assay plates (384-well) were prepared by adding 250nL of compound to each well. For single shot assay, the final compound concentration was 5 uM. […] Automated image analysis was performed with a script developed on Acapella High Content Imaging and Analysis Software (PerkinElmer). Output: Percent of infected macrophage cells were reported for each well.; assay type: functional, organism-based, Homo sapiens; conditions: THP-1

Row | Compound | IC50 at 48 h [1] | IC50 [2] | IC50 [3] | IC50 [4] | IC50 [5] | IC50 [6] | IC50 [7] | IC50 [8] | IC50 [9] | IC50 [10] | IC50 [11] | IC50 [12] | IC50 [13]
1 | COc1cccc(-c2cc(C(F)(F)F)nc(-n3ccc([N+](=O)[O-])n3)n2)c1 | > 100 µM | > 39.8 µM | > 100 µM | 31.6 µM | 0.2 µM | > 50.1 µM | > 50.1 µM | 0.398 µM | > 50.1 µM | 0.398 µM | > 50.1 µM | > 50.1 µM | > 50.1 µM
2 | Cn1nc([N+](=O)[O-])nc1N1CCCCC1 | > 100 µM | > 39.8 µM | > 100 µM | > 39.8 µM | 1 µM | > 50.1 µM | > 50.1 µM | 12.6 µM | > 50.1 µM | 1.26 µM | > 50.1 µM | > 50.1 µM | > 50.1 µM
3 | COc1cc(C(C)C)c(S(C)(=O)=O)cc1C(=O)N1CCN(c2ccccc2Cl)CC1 | > 100 µM | 31.6 µM | > 100 µM | 25.1 µM | 2 µM | 5.01 µM | 12.6 µM | 2.51 µM | > 50.1 µM | 1.58 µM | 20 µM | 15.8 µM | 15.8 µM
4 | O=C(NCc1ccc(-n2cccc2)cc1)c1nc(Cn2ccc([N+](=O)[O-])n2)no1 | > 100 µM | > 39.8 µM | > 100 µM | > 39.8 µM | 1.26 µM | > 50.1 µM | > 50.1 µM | 2.51 µM | 50.1 µM | 2.51 µM | > 50.1 µM | > 50.1 µM | > 50.1 µM
5 | COc1ccc(NS(=O)(=O)c2cccc(NC(=O)c3cc(F)cc(F)c3)c2)cc1 | 31.6 µM | 1 µM | > 100 µM | 0.631 µM | 0.501 µM | 3.16 µM | 20 µM | 0.501 µM | 25.1 µM | 0.794 µM | > 50.1 µM | > 50.1 µM | > 50.1 µM
6 | Cc1cc(N(C)C)nc(Nc2ccccc2C)n1 | 63.1 µM | > 39.8 µM | > 100 µM | 31.6 µM | 0.501 µM | > 50.1 µM | 15.8 µM | 0.794 µM | 39.8 µM | 1.58 µM | > 50.1 µM | 39.8 µM | 31.6 µM
7 | O=C1CSC(c2cccnc2)N1c1ccc(Cl)cc1Cl (stereo not given) | > 100 µM | > 39.8 µM | 0.158 µM | > 39.8 µM | 0.158 µM | 5.01 µM | > 50.1 µM | 0.251 µM | > 50.1 µM | 0.0708 µM | > 50.1 µM | > 50.1 µM | > 50.1 µM
8 | CN(C)CCN(C)Cc1ccc(F)cc1NS(=O)(=O)c1ccc(Cl)c(Cl)c1 | 39.8 µM | 5.01 µM | > 126 µM | 5.01 µM | 2 µM | 7.94 µM | 2.51 µM | 2.51 µM | 15.8 µM | 1.58 µM | 6.31 µM | 31.6 µM | 7.94 µM
9 | Cn1nc([N+](=O)[O-])nc1Oc1ccc(C(=O)c2ccccc2)cc1 | > 100 µM | > 39.8 µM | > 100 µM | 20 µM | 0.126 µM | > 50.1 µM | > 50.1 µM | 0.316 µM | > 50.1 µM | 0.251 µM | > 50.1 µM | > 50.1 µM | > 50.1 µM
10 | CN1CCCN(C(=O)c2ccc(N3CCCC3)cc2Cl)CC1 | > 100 µM | > 39.8 µM | > 100 µM | > 39.8 µM | 0.631 µM | 39.8 µM | > 50.1 µM | 1 µM | 25.1 µM | 0.891 µM | > 50.1 µM | > 50.1 µM | > 50.1 µM
